From PubChem BioAssay (NCI)
Several values for one entry are separate records, joined by “and”; a condition that tells them apart may be missing. Equal entries are not always repeated.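 Five compound concentrations were applied to cells in 96-well plates for 48 hours; endpoints were derived by simple linear interpolation of the resulting dose-response curve. GI50 marks 50% less growth. Definition used: TGI = concentration required for complete inhibition of growth.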

How the values were obtained:
Assay in all cases: NCI-60 cell line screen, 48 h
SNB-75 CNS = system: SNB-75 CNS
SR leukemia = system: SR leukemia
MALME-3M melanoma = system: MALME-3M melanoma
SK-MEL-2 melanoma = system: SK-MEL-2 melanoma
NCI-H460 lung = system: NCI-H460 lung
MOLT-4 leukemia = system: MOLT-4 leukemia
SF-295 CNS = system: SF-295 CNS
MCF7 breast = system: MCF7 breast
786-0 renal = system: 786-0 renal
HL-60(TB) leukemia = system: HL-60(TB) leukemia

For `O=C(c1cccs1)c1c(C(F)(F)F)n([O-])c2cc(C(F)(F)F)ccc2[n+]1=O`, the GI50 (SNB-75 CNS) was 0.491 µM, the TGI (SNB-75 CNS) was 1.54 µM and the GI50 (SR leukemia) was 0.0176 µM. It also gave a TGI (SR leukemia) of 0.0833 µM, a GI50 (MALME-3M melanoma) of 0.347 µM and a TGI (MALME-3M melanoma) of 0.772 µM. It also gave a GI50 (SK-MEL-2 melanoma) of 0.915 µM, a TGI (SK-MEL-2 melanoma) of 2.46 µM and a GI50 (NCI-H460 lung) of 0.198 µM. For the same molecule, the TGI (NCI-H460 lung) was 0.512 µM, the GI50 (MOLT-4 leukemia) was 0.0757 µM and the TGI (MOLT-4 leukemia) was 0.231 µM. It also gave a GI50 (SF-295 CNS) of 0.322 µM, a TGI (SF-295 CNS) of 0.889 µM and a GI50 (MCF7 breast) of 0.187 µM. It also gave a TGI (MCF7 breast) of 0.41 µM, a GI50 (786-0 renal) of 0.171 µM and a TGI (786-0 renal) of 0.319 µM. It also gave a GI50 (HL-60(TB) leukemia) of under 0.0236 µM and a TGI (HL-60(TB) leukemia) of 0.135 µM.
In the case of `O=C1C(Br)=C(c2ccccc2)C(c2ccccc2)=C1c1ccccc1`, the TGI (SNB-75 CNS) was 12.9 µM, the TGI (SR leukemia) was 3.78 µM and the TGI (MALME-3M melanoma) was 3.33 µM. The TGI (SK-MEL-2 melanoma) was 14.4 µM, the TGI (NCI-H460 lung) was 18 µM and the TGI (MOLT-4 leukemia) was 3.74 µM. The TGI (SF-295 CNS) was 23.5 µM, the TGI (MCF7 breast) was 7.68 µM and the TGI (786-0 renal) was 4.26 µM. The TGI (HL-60(TB) leukemia) was 2.31 µM.
Work on `Nc1c(C(=O)Nc2cccc3ccccc23)sc2nc3c(cc12)CCCCC3` yielded a GI50 (SNB-75 CNS) of 0.161 µM, a TGI (SNB-75 CNS) of over 50 µM and a GI50 (SR leukemia) of 0.214 µM. For the same molecule, the TGI (SR leukemia) was over 50 µM, the GI50 (MALME-3M melanoma) was 31.9 µM and the TGI (MALME-3M melanoma) was over 50 µM. It also gave a GI50 (SK-MEL-2 melanoma) of over 50 µM, a TGI (SK-MEL-2 melanoma) of over 50 µM and a GI50 (NCI-H460 lung) of 1.33 µM. The TGI (NCI-H460 lung) was over 50 µM, the GI50 (MOLT-4 leukemia) was 0.418 µM and the TGI (MOLT-4 leukemia) was over 50 µM. It also gave a GI50 (SF-295 CNS) of 0.421 µM, a TGI (SF-295 CNS) of over 50 µM and a GI50 (MCF7 breast) of 0.168 µM. The TGI (MCF7 breast) was over 50 µM, the GI50 (786-0 renal) was 0.443 µM and the TGI (786-0 renal) was over 50 µM. It also gave a GI50 (HL-60(TB) leukemia) of 0.202 µM and a TGI (HL-60(TB) leukemia) of 2.87 µM.
`c1cncc(-c2cc(-c3cc(-c4cccnc4)n[nH]3)[nH]n2)c1` gave a TGI (SNB-75 CNS) of over 100 µM, a TGI (SR leukemia) of over 100 µM and a TGI (MALME-3M melanoma) of over 100 µM. The TGI (SK-MEL-2 melanoma) was over 100 µM, the TGI (NCI-H460 lung) was over 100 µM and the TGI (MOLT-4 leukemia) was over 100 µM. For the same molecule, the TGI (SF-295 CNS) was over 100 µM, the TGI (MCF7 breast) was over 100 µM and the TGI (786-0 renal) was over 100 µM. For the same molecule, the TGI (HL-60(TB) leukemia) was over 100 µM.
`COc1cc(-c2ccc(-[n+]3nc(-c4ccc([N+](=O)[O-])cc4)nn3-c3ccc([N+](=O)[O-])cc3)c(OC)c2)ccc1-[n+]1nc(-c2ccc([N+](=O)[O-])cc2)nn1-c1ccc([N+](=O)[O-])cc1` gave a GI50 (SNB-75 CNS) of 1.3 µM, a TGI (SNB-75 CNS) of 2.95 µM and a GI50 (SR leukemia) of 30.4 µM. For the same molecule, the TGI (SR leukemia) was over 100 µM, the GI50 (MALME-3M melanoma) was 1.89 µM and the TGI (MALME-3M melanoma) was 4.47 µM. The GI50 (SK-MEL-2 melanoma) was 4.29 µM, the TGI (SK-MEL-2 melanoma) was 17.9 µM and the GI50 (NCI-H460 lung) was 3.02 µM. The TGI (NCI-H460 lung) was 11.1 µM, the GI50 (MOLT-4 leukemia) was 2.98 µM and the TGI (MOLT-4 leukemia) was over 82 µM. It also gave a GI50 (SF-295 CNS) of 3.07 µM, a TGI (SF-295 CNS) of 16.1 µM and a GI50 (MCF7 breast) of 1.75 µM. The TGI (MCF7 breast) was 4.47 µM, the GI50 (786-0 renal) was 3.45 µM and the TGI (786-0 renal) was 23.2 µM. The GI50 (HL-60(TB) leukemia) was 1.91 µM and the TGI (HL-60(TB) leukemia) was over 46.2 µM.
In the case of `N#C/C(=C\c1ccc(Cl)cc1)n1nnc2cc(F)c(F)cc21`, the GI50 (SNB-75 CNS) was 1.51 µM, the TGI (SNB-75 CNS) was 3.01 µM and the GI50 (SR leukemia) was 1.33 µM. The TGI (SR leukemia) was over 100 µM, the GI50 (MALME-3M melanoma) was 2.06 µM and the TGI (MALME-3M melanoma) was 5.34 µM. It also gave a GI50 (SK-MEL-2 melanoma) of 2.03 µM, a TGI (SK-MEL-2 melanoma) of 4.83 µM and a GI50 (NCI-H460 lung) of 2.17 µM. For the same molecule, the TGI (NCI-H460 lung) was 4.86 µM, the GI50 (MOLT-4 leukemia) was 2.65 µM and the TGI (MOLT-4 leukemia) was over 100 µM. For the same molecule, the GI50 (SF-295 CNS) was 2.26 µM, the TGI (SF-295 CNS) was 5.53 µM and the GI50 (MCF7 breast) was 1.53 µM. For the same molecule, the TGI (MCF7 breast) was 4.49 µM, the GI50 (786-0 renal) was 1.69 µM and the TGI (786-0 renal) was 3.28 µM. For the same molecule, the GI50 (HL-60(TB) leukemia) was 2.36 µM and the TGI (HL-60(TB) leukemia) was 6.82 µM.
`COc1cc(N)ccc1Nc1c2ccccc2nc2ccccc12` gave a GI50 (SNB-75 CNS) of 10.8 µM, a TGI (SNB-75 CNS) of 31.2 µM and a GI50 (SR leukemia) of 2.11 µM. For the same molecule, the TGI (SR leukemia) was over 32.5 µM, the GI50 (MALME-3M melanoma) was 14.6 µM and the TGI (MALME-3M melanoma) was 35.1 µM. For the same molecule, the GI50 (SK-MEL-2 melanoma) was 23.3 µM, the TGI (SK-MEL-2 melanoma) was 44.9 µM and the GI50 (NCI-H460 lung) was 1.38 µM. For the same molecule, the TGI (NCI-H460 lung) was 7.72 µM, the GI50 (MOLT-4 leukemia) was 2.21 µM and the TGI (MOLT-4 leukemia) was over 28.5 µM. For the same molecule, the GI50 (SF-295 CNS) was 12 µM, the TGI (SF-295 CNS) was 30.1 µM and the GI50 (MCF7 breast) was 2.27 µM. For the same molecule, the TGI (MCF7 breast) was 13.5 µM, the GI50 (786-0 renal) was 12.7 µM and the TGI (786-0 renal) was 27.2 µM. It also gave a GI50 (HL-60(TB) leukemia) of 5.49 µM and a TGI (HL-60(TB) leukemia) of 18.5 µM.
`O=C1CN2CCC1C/C2=C\c1ccnc2c(Cl)cccc12` (stereo not given) gave a GI50 (SNB-75 CNS) of over 100 µM, a TGI (SNB-75 CNS) of over 100 µM and a GI50 (SR leukemia) of 36.5 µM. It also gave a TGI (SR leukemia) of over 100 µM, a GI50 (MALME-3M melanoma) of 91.9 µM and a TGI (MALME-3M melanoma) of over 100 µM. It also gave a GI50 (SK-MEL-2 melanoma) of over 100 µM, a TGI (SK-MEL-2 melanoma) of over 100 µM and a GI50 (NCI-H460 lung) of 72.8 µM. The TGI (NCI-H460 lung) was over 100 µM, the GI50 (MOLT-4 leukemia) was 44.4 µM and the TGI (MOLT-4 leukemia) was over 100 µM. It also gave a GI50 (SF-295 CNS) of 46.5 µM, a TGI (SF-295 CNS) of over 100 µM and a GI50 (MCF7 breast) of 4.16 µM. For the same molecule, the TGI (MCF7 breast) was over 100 µM, the GI50 (786-0 renal) was over 100 µM and the TGI (786-0 renal) was over 100 µM. It also gave a GI50 (HL-60(TB) leukemia) of 67.4 µM and a TGI (HL-60(TB) leukemia) of over 100 µM.
`CCOC(=O)CCc1c(C)c2ccc(O)cc2oc1=O` showed a TGI (SNB-75 CNS) of over 100 µM, a TGI (SR leukemia) of over 100 µM and a TGI (MALME-3M melanoma) of over 100 µM. It also gave a TGI (SK-MEL-2 melanoma) of over 100 µM, a TGI (NCI-H460 lung) of over 100 µM and a TGI (MOLT-4 leukemia) of over 100 µM. It also gave a TGI (SF-295 CNS) of over 100 µM, a TGI (MCF7 breast) of over 100 µM and a TGI (786-0 renal) of over 100 µM. For the same molecule, the TGI (HL-60(TB) leukemia) was over 100 µM.
`Cc1cc(Nc2ncc(Cl)c(Nc3ccccc3S(=O)(=O)C(C)C)n2)c(OC(C)C)cc1C1CCNCC1` showed a GI50 (SNB-75 CNS) of 1.2 µM, a TGI (SNB-75 CNS) of 2.44 µM and a GI50 (SR leukemia) of 0.0444 µM. The TGI (SR leukemia) was 1.58 µM, the GI50 (MALME-3M melanoma) was 0.857 µM and 0.265 µM and the TGI (MALME-3M melanoma) was 2.25 µM and 1.25 µM. It also gave a GI50 (SK-MEL-2 melanoma) of 1.47 µM, a TGI (SK-MEL-2 melanoma) of 3.06 µM and a GI50 (NCI-H460 lung) of 1.2 µM. It also gave a TGI (NCI-H460 lung) of 2.83 µM, a GI50 (MOLT-4 leukemia) of 1.55 µM and a TGI (MOLT-4 leukemia) of 3.7 µM. The GI50 (SF-295 CNS) was 1.43 µM and 1.63 µM, the TGI (SF-295 CNS) was 2.81 µM and 3.16 µM and the GI50 (MCF7 breast) was 0.552 µM. The TGI (MCF7 breast) was 2.04 µM, the GI50 (786-0 renal) was 1.56 µM and the TGI (786-0 renal) was 3.01 µM. For the same molecule, the GI50 (HL-60(TB) leukemia) was 0.253 µM and the TGI (HL-60(TB) leukemia) was 1.64 µM.
For `CC1(C)CC2=NOS3=C2C(=NO3)C1c1ccccn1` (stereo not given), the TGI (SNB-75 CNS) was over 100 µM, the TGI (SR leukemia) was 81 µM and the TGI (MALME-3M melanoma) was over 100 µM. The TGI (SK-MEL-2 melanoma) was over 100 µM, the TGI (NCI-H460 lung) was over 100 µM and the TGI (MOLT-4 leukemia) was 95.6 µM. For the same molecule, the TGI (SF-295 CNS) was over 100 µM, the TGI (MCF7 breast) was over 100 µM and the TGI (786-0 renal) was over 100 µM. The TGI (HL-60(TB) leukemia) was 51.7 µM.
